We go through one compound from ChEMBL document CHEMBL3862032, “Design, Synthesis, and Cytotoxic Evaluation of Novel Tubulysin Analogues as ADC Payloads” (ACS Med Chem Lett, 2016).

Assay [1] in a line: Cytotoxicity against human MDA-MB-361/DYT2 cells assessed as decrease in cell viability after 4 days by MTS assay. Format: functional, cell-based. To be noted: MDA-MB-361, 96 h. On the technique in general: Tetrazolium assays rely on reduction of a dye to a coloured formazan, in cell work by metabolically active cells.
Assay [2] relates to KB. Briefly: Resistance ratio of IC50 for human KB 8.5 cells expressing MDR1 to IC50 for MDR1 deficient human KB cells. The assay is classed as functional.
A short description of assay [3]: Cytotoxicity against human KB 8.5 cells expressing MDR1 assessed as decrease in cell viability after 4 days by MTS assay. Format: functional, cell-based. Particulars: KB 8.5, 96 h.
A short description of assay [4]: Cytotoxicity against MDR1 deficient human KB cells assessed as decrease in cell viability after 4 days by MTS assay. The assay is classed as functional, cell-based. Particulars: 96 h.
A short description of assay [5]: Cytotoxicity against human NCI-N87 cells assessed as decrease in cell viability after 4 days by MTS assay. Format: functional, cell-based. Particulars: NCI-N87, 96 h.

Take `CC[C@H](C)[C@H](NC(=O)[C@H]1CCCCN1C)C(=O)N(C)[C@H](C[C@@H](OC(C)=O)c1nc(C(=O)N[C@@H](Cc2ccccc2)c2nccs2)cs1)C(C)C`: the IC50 (commonly the concentration at which inhibition is half-maximal) in assay [1] was 0.95 nM; in assay [3], 13.5 nM; in assay [4], 3.57 nM; in assay [5], 3 nM. Also, the “Ratio IC50” value in assay [2] was found to be 4.
